Reference: US11578013B2, “Nitrification inhibitors” (Lincoln University, priority 2020, dated 2023)
Structures can show the parent of a compound that is named as a salt.

Assays:
[1] = tested on: nitrification in the soil; test: Laboratory soil incubation, Templeton sandy loam with synthetic cow urine, nitrate-N; details: for nitrate-N concentration in the soil compared with urine alone or urine+DMSO / reducing the nitrification rate compared with DCD: day 30; for reducing the nitrification rate compared with DCD: compound at 2 kg/ha vs DCD at 10 kg/ha; for % reduction by NI (nitrate-N): vs urine alone, 30 days; for Nitrate-N: 30 days of incubation
Experimental: A Templeton sandy loam was used in this experiment. 500 g of soil (dry weight basis) was packed into a pottle. 50 mL of synthetic cow urine with an N concentration of 7 g N/L (comprising about 87% urea-N and 13% glycine-N) was applied to the soil (equivalent to 700 kg N/ha on weight basis, assuming bulk density of 1 g/cm^3 in the top 10 cm of soil). The 700 kg N/ha application was used to simulate the urine-N application rate under a typical dairy cow urine patch in a grazed pasture.
Control treatments also added to soil were: • urine alone (50 mL); • DMSO (equivalent to 0.9 mL/500 g soil)+urine (50 mL) to determine the effect of DMSO on nitrification rate; • water alone (50 mL) (simulating areas of the soil where no urine was deposited).
Pottles were covered with lids with breathing holes to allow for gas exchange during incubation. Pottles were incubated at 12° C. Soil moisture content was maintained at field capacity by adjusting on weight basis twice a week.
Soil samples were collected and were then thoroughly mixed and subsamples were extracted in a potassium chloride solution and analysed for mineral-N. Soil moisture content was also determined. Samples were taken at 30 days after the start of incubation. […]

nitrification = test: Table 1 summary: compounds found to work or not work as nitrification inhibitors, Inhib(%); set-up: concentration or dose not given beside the values; details: test and rate not given
Experimental: The phenotypic screening involved assessing the nitrification inhibition potency of the selected 5000 compounds against a key ammonia oxidizing bacterium responsible for ammonia oxidation in the soil, Nitrosomonas europaea, in 96-well microtiter plates. N. europaea cells were grown in the presence of an ammonium source, and the potential of putative nitrification inhibitors to inhibit the production of nitrite (NO2) was measured relative to untreated cells.
A summary of selected compounds initially found to either work or not work as nitrification inhibitors is detailed in Table 1 below.

Row | SMILES | nitrate-N concentration in the soil compared with urine alone or urine+DMSO ([1]; 2 kg/ha) | reducing the nitrification rate compared with DCD [1] | Inhib(%) (nitrification) | further results
1 | C#Cc1ccncn1 [4-Ethynylpyrimidine] | significantly lower nitrate-N concentrations | more effective than DCD | 100 | nitrate-N concentration in the soil compared with urine alone or urine+DMSO ([1]; 1 kg/ha): lower nitrate-N concentrations
2 | C#Cc1ccc(OC(F)(F)F)cc1 [1-ethynyl-4-(trifluoromethoxy)benzene, reference compound] |  |  | 8 | 
3 | C#Cc1ccc(C#C)nc1 [2,5-diethynylpyridine] | lower nitrate-N concentrations |  | 100 | 
4 | C#CC1CCN(C(C)=O)CC1 [1-(4-ethynyl-1-piperidinyl)ethanone, reference compound] |  |  | 0 | 
5 | C#Cc1ccc(OCC)cc1 [1-ethoxy-4-ethynylbenzene] | significantly lower nitrate-N concentrations | more effective than DCD | 100 | 
6 | C#Cc1cccnn1 [3-Ethynylpyridazine] | significantly lower nitrate-N concentrations | more effective than DCD |  | nitrate-N concentration in the soil compared with urine alone or urine+DMSO ([1]; 0.5 kg/ha): lower nitrate-N concentrations; % reduction by NI (nitrate-N) ([1]; 0.5 kg/ha): 91%; nitrate-N concentration in the soil compared with urine alone or urine+DMSO ([1]; 1 kg/ha): lower nitrate-N concentrations; % reduction by NI (nitrate-N) ([1]; 1 kg/ha): 98%; % reduction by NI (nitrate-N) ([1]; 2 kg/ha): 95%; Nitrate-N ([1]; urine + inhibitor at 0.5 kg/ha): 35.5 mg N/kg soil; Nitrate-N ([1]; urine + inhibitor at 1 kg/ha): 10.3 mg N/kg soil; Nitrate-N ([1]; urine + inhibitor at 2 kg/ha): 10.5 mg N/kg soil
7 | C#Cc1cc[n+](O)cc1 [4-ethynylpyridine 1-oxide, reference compound] |  |  | 18 | 
8 | C#Cc1ccc(O)cc1 [4-ethynylphenol, reference compound] |  |  | 0 | 
9 | C#Cc1ccc(C#C)cc1 [1,4-diethynylbenzene] | significantly lower nitrate-N concentrations | more effective than DCD | 100 | 
10 | C#CC1CCNCC1 [4-ethynylpiperidine hydrochloride, reference compound] |  |  | 0 | 
11 | C#Cc1cnc(C#C)nc1 [2,5-diethynylpyrimidine, reference compound] |  |  | 60 | 
12 | C#Cc1cnccn1 [2-ethynylpyrazine] |  | more effective than DCD |  | 
13 | C#Cc1ccc(OC)nc1 [5-ethynyl-2-methoxypyridine] | lower nitrate-N concentrations |  | 100 | 
14 | C#Cc1ccc(OCCCCC)cc1 [1-ethynyl-4-pentoxybenzene, reference compound] |  |  | 2 | 
15 | C#Cc1c[nH]c(=O)[nH]c1=O [5-ethynyl-2,4(1H,3H)-pyrimidinedione, reference compound] |  |  | 0 | 
